# Laboratory results: paper PMC8296985, “A Covalent Calmodulin Inhibitor as a Tool to Study Cellular Mechanisms of K-Ras-Driven Stemness” (Frontiers in Cell and Developmental Biology, 2021)
# Where two headings read alike, the source gives them in different places.
# Tests used:
# Hs 578T = assay: 3D spheroid (tumorosphere) formation assay, low attachment, serum-free, alamarBlue; format: cell-based; conditions: Homo sapiens
# Method: (§1) 3D spheroid formation assays were performed in 96-well low-attachment, suspension culture plates (cat. no. 655185, Cellstar, Greiner Bio-One) under serum-free condition. About 1,000 (MDA-MB-231, NCI-H358, and MIA PaCa-2) or 2,500 (Hs 578T) cells per well were seeded in 50 μl of either an RPMI medium (cat. no. 52400-025, Gibco, Thermo Fisher Scientific) (MDA-MB-231, A375, and NCI-H358) or DMEM (cat. no. 41965-039, Gibco, Thermo Fisher Scientific) (Hs 578T and MIA PaCa-2), containing 0.5% MethoCult (cat. no. SF H4636, Stemcell technologies), 1x B27 (cat. no. 17504044, Gibco, Thermo Fisher Scientific), 25 ng/ml EGF (cat. no. E9644, Sigma-Aldrich), and 25 ng/ml FGF (cat. no. RP-8628, Thermo Fisher Scientific). Cells were cultured for 3 days and then treated with compounds or vehicle control (DMSO 0.1% v/v in growth medium) for another 3 days. The cells were supplemented with a fresh growth medium on the third day together with the drug treatment. For knockdown experiments, cells were seeded in 12-well plates and treated with either 50 nM scrambled siRNA (cat. no. 1022076, QIAGEN) or indicated concentrations of siRNAs. Next day, cells were collected by trypsinization and re-plated into 96-well plates for 3D spheroid suspension culture.
# (§2) Spheroid formation efficiency was analyzed by an alamarBlue assay reagent (cat. no. DAL1100, Thermo Fisher Scientific). A 10% final volume of the alamarBlue reagent was added to each well of the plate and incubated for 4 h at 37°C. Then the fluorescence intensity was measured using the FLUOstar OPTIMA plate reader (BMG Labtech, Germany) with an excitation wavelength of 560 ± 5 nm and an emission wavelength of 590 ± 5 nm.
# (§3) To quantitatively profile the drug sensitivity with a more robust parameter than the IC50 or EC50 values, the drug sensitivity score (DSS) analysis was employed. DSS values are essentially normalized area under the curve (AUC) measures of dose-response inhibition data ([Yadav et al., 2014]). Drug response data files (in Excel) ready for online analysis were prepared according to the example file obtained from the DSS pipeline website, called Breeze^1 ([Potdar et al., 2020]). Either raw fluorescence intensity measurements or normalized % inhibition data (for BRET assay analysis) were uploaded.
# (§4) DSS3 was employed to emphasize drugs that obtain their response area over a relatively wide dose window, as compared to drugs that show increased response only at the higher end of the concentration range. After logistic fitting of the dose-response inhibition data, the area under the curve (AUC) was determined as the exact solution. A 10% minimal activity threshold (t) was set. The maximum (Cmax) and minimum (Cmin) concentrations were used for screening of the inhibitors, with Cmax = x2 and x1 concentration with minimal activity t.
# MDA-MB-231 = assay: as above; format: cell-based; conditions: for IC50: Homo sapiens; for KRAS/HRAS mutant cell line DSS3 ratio: MDA-MB-231 vs Hs 578T 3D spheroid formation, 0.6–40 μM, numbers above bars Fig. 1A,B
# Method: as §1, §2, §3, §4
# Chemical stability note = format: physicochemical
# calmodulin (CaM) = calmodulin (CaM) (Bos taurus, UniProt P62157); assay: Fluorescence polarization assay, displacement of F-PMCA peptide from CaM; conditions: for kinact/KI: read-out: k2/Ki second-order rate constant
# K-RasG12V/CaM = target: T1, K-RasG12V/CaM (Homo sapiens, UniProt P0DP23); assay: Rluc8-K-RasG12V/GFP2-CaM interaction BRET in HEK293-EBNA cells; format: cell-based
# T1 construct: expressed in transfected cells; host or cells: HEK293-EBNA
# Method: (§5) BRET assays were essentially performed as described by others ([Lavoie et al., 2013]; [Bery et al., 2018]). About 100,00–150,000 HEK293-EBNA ([Meissner et al., 2001]) cells were seeded per well of a 12-well plate in 1 ml of DMEM containing 10% FBS and 2 mM L-glutamine and were grown for 24 h. Next day, Rluc8-tagged donor and GFP2-tagged acceptor constructs were transfected into cells using a jetPRIME transfection reagent (cat. no. 114-75, Polyplus). Each well was transfected with about 1 μg of plasmid DNA using 3 μl of the jetPRIME reagent. For BRET donor saturation titration experiments, the concentration of donor plasmid (25 ng) was kept constant, and the concentration of acceptor plasmid was increased from 0 to 500 ng for RasG12V BRET pairs and 0–1,000 ng for K-Ras/CaM BRET pairs. The empty pcDNA3.1(-) plasmid was used to top-up the total DNA load per transfection. After 24 h of transfection, cells were treated with compounds or vehicle control (DMSO 0.2% v/v in a growth medium) at the specified concentration for 24 h or the stipulated time period in case of the time-course experiments. The cells from one well of a 12-well plate were collected, washed, and re-plated in PBS (cat. no. 14190-094, Gibco, Thermo Fisher Scientific) on flat bottom, white 96-well plates (cat. no. 236108, Nunc, Thermo Fisher Scientific) as four technical replicates containing 90 μl of cell suspension per well. Then fluorescence intensity followed by BRET readings were carried out on a Clariostar (BMG Labtech) plate reader at 25°C. The fluorescence intensity (RFU) of GFP2 was measured with excitation at 405 ± 10 nm and emission 515 ± 10 nm; it is proportional to the acceptor concentration [acceptor]. BRET readings were taken well by well by adding 10 μl of 100 μM coelenterazine 400a (cat. no. C-320, GoldBio), the Rluc8 substrate to each well (final concentration of 10 μM) using the injector present in the plate reader. Luminescence emission intensities were simultaneously recorded at 410 ± 40 nm (RLU, proportional to [donor]) and 515 ± 15 nm (BRET signal).
# (§6) The raw BRET ratio was calculated as the BRET signal measured at 515 nm divided by the emission signal measured at 410 nm (RLU). The BRET ratio was obtained by subtracting the raw BRET ratio by a background BRET signal measured for cells expressing only the donor ([Bacart et al., 2008]) as indicated in the formula below:
# (§7) For BRET donor saturation titration experiments, the BRET ratio was plotted against the [acceptor]/[donor] ratio. Technical repeat data points were averaged, and data points from all biological repeats were collected into one graph for subsequent fitting. The BRET ratio vs. relative expression data were fitted using a binding saturation equation in the Prism (GraphPad) software to obtain BRETmax and BRET50 using the equation y=BRETmax×x/BRET50+x , where x is the relative expression and y is the BRET ratio. BRETmax represents the maximum saturation BRET signal and depends on the structural parameters (distance, orientation) of the BRET complex. BRET50 corresponds to the ratio of the acceptor construct over the donor construct required to attain 50% of the maximum BRET signal and is a measure of the effective relative affinity between the interacting BRET pair ([Marullo and Bouvier, 2007]).
# [1] = target: T2, mutCaM (CaM with K75Q, K77Q, and K148Q mutations) (Homo sapiens, UniProt P0DP23, K76Q/K78Q); assay: Fluorescence polarization assay with F-CaMKII peptide and His-mutCaM; format: binding; conditions: 50 nM His-mutCaM, 5 nM F-CaMKII, compared to wt CaM
# T2 construct: made in house; host or cells: E. coli BL21 Star (DE3)pLysS
# Method: Our numbering of CaM follows ([Kong Au and Chow Leung, 1998]) with Ala being the first amino acid in human CaM, as the N-terminal methionine of CaM is removed in most organisms ([Halling et al., 2016]). […] At A600 of 0.6–0.8, the culture was induced with 0.5 mM of isopropyl β-D-thiogalactopyranoside and expressed for 16 h at 25°C. Cells were collected by centrifugation and incubated on ice for 30 min. The cell suspension was sonicated in a lysis buffer (20 mM HEPES, pH 7.6, 150 mM NaCl, 5 mM MgCl2, 0.5 mg/ml lysozyme, and DNase I). The lysates were clarified by centrifugation at 18,000 g for 30 min at 4°C. The soluble fractions were subjected to protein purification.
# [2] = tested on: Ca^2+/CaM-dependent cyclic nucleotide phosphodiesterase; set-up: method as in Itoh and Hidaka, 1984; Zimmer and Hofmann, 1984; conditions: ref Itoh and Hidaka, 1984, Zimmer and Hofmann; cited from earlier work
# H-RasG12V = H-RasG12V nanoclustering-BRET assay in HEK293-EBNA cells; format: cell-based; conditions: FTI-277 1 μM, 24 h
# Method: BRET assays were essentially performed as described by others ([Lavoie et al., 2013]; [Bery et al., 2018]). About 100,00–150,000 HEK293-EBNA ([Meissner et al., 2001]) cells were seeded per well of a 12-well plate in 1 ml of DMEM containing 10% FBS and 2 mM L-glutamine and were grown for 24 h. Next day, Rluc8-tagged donor and GFP2-tagged acceptor constructs were transfected into cells using a jetPRIME transfection reagent (cat. no. 114-75, Polyplus). Each well was transfected with about 1 μg of plasmid DNA using 3 μl of the jetPRIME reagent. […] Then fluorescence intensity followed by BRET readings were carried out on a Clariostar (BMG Labtech) plate reader at 25°C. The fluorescence intensity (RFU) of GFP2 was measured with excitation at 405 ± 10 nm and emission 515 ± 10 nm; it is proportional to the acceptor concentration [acceptor]. BRET readings were taken well by well by adding 10 μl of 100 μM coelenterazine 400a (cat. no. C-320, GoldBio), the Rluc8 substrate to each well (final concentration of 10 μM) using the injector present in the plate reader. Luminescence emission intensities were simultaneously recorded at 410 ± 40 nm (RLU, proportional to [donor]) and 515 ± 15 nm (BRET signal).
# The raw BRET ratio was calculated as the BRET signal measured at 515 nm divided by the emission signal measured at 410 nm (RLU). […]
# α-hemoglobin = tested on: α-hemoglobin; set-up: method as in earlier work; conditions: formyl warhead, ref Center for Drug Evaluation and Research, 2017, Metcalf et al.; cited from earlier work
# K-RasG12V = K-RasG12V nanoclustering-BRET assay in HEK293-EBNA cells; format: cell-based; conditions: 24 h; calmidazolium 20 μM, OphA 2.5 μM, prostratin 10 μM, mevastatin 10 μM, benzazulenones 20 μM
# Method: as §5, §6, §7
# When applying the DSS analysis to nanoclustering-BRET data, we used mevastatin (10 μM) to obtain the asymptote parameter (a) for the maximal inhibition effect, as it prevents the prenylation of Ras proteins, their plasma membrane trafficking, and therefore nanoclustering. Otherwise, normalized BRET ratio data were converted to % inhibition and then subsequently uploaded onto the Breeze site (see text footnote 1).
# HeLa cells = assay: Centrosome number / multipolar phenotype in synchronized HeLa cells expressing mCherry-CaM; format: cell-based; conditions: 2 h; calmidazolium 20 μM, 1 50 μM, with MG132 10 μM
# Method: To evaluate the effect of compounds on centrosome numbers during mitosis, HeLa cells were seeded in 6-well plates onto sterile coverslips and cotransfected with 0.5 μg of pmCherry-CaM and 1.5 μg pEGFP-Centrin1 plasmids using 4 μl of jetPRIME. Twenty-four hours after the transfection, cells were synchronized with 60 ng/ml of nocodazole for 16 h. After the removal of nocodazole, the cells were treated with the […] MG132 (10 μM) to block the cells in metaphase and either calmidazolium (20 μM), 1 (50 μM), or DMSO (0.5%) for 2 h. Cells were then fixed with 4% paraformaldehyde in PBS for 10 min at ambient temperature. After washing with PBS-Tween 0.05%, DNA was stained with a 1 μg/ml solution of DAPI diluted in PBS for 10 min. Coverslips were mounted on glass slides using Vectashield, and images were captured on a spinning disk confocal microscope. Images were analyzed with the ImageJ software, and the number of transfected mitotic cells with multipolar and normal bipolar phenotypes was counted (between 35 and 70 cells per test condition). The percentage multipolar vs. bipolar cells was computed to generate the plot using the Prism software.
# CaM = target: CaM; set-up: method as in Manoharan et al., 2019; conditions: ref Manoharan et al., 2019; cited from earlier work
# [3] = 72 h, Hs 578T (H-RasG12D) 3D tumorosphere, 3 days treatment, read-out: IC50
# [4] = Hs 578T 3D tumorosphere, log scale, read-out: logIC50 ± SD (converted)
# [5] = 72 h, MDA-MB-231 (K-RasG13D) 3D tumorosphere, 3 days treatment, read-out: IC50
# [6] = MDA-MB-231 3D tumorosphere, log scale, read-out: logIC50 ± SD (converted)
IC50 (Hs 578T; [3]) [µM],IC50 (Hs 578T; [4]) [µM],IC50 (MDA-MB-231; [5]) [µM],IC50 (MDA-MB-231; [6]) [µM],Kd (calmodulin (CaM)) [µM],Ki (calmodulin (CaM)) [µM],kinact/KI (calmodulin (CaM)) [M⁻¹ s⁻¹],SMILES,KRAS/HRAS mutant cell line DSS3 ratio (MDA-MB-231),other results
25.8,25.1,35,34.7,0.25,11,11.7,CC(C)c1ccc2cc(C(F)(F)F)c(=O)c3c(N4CCN(C)CC4)c(C=O)c(c1)c23 [Compound 3],6.0,"chemical stability (Chemical stability note): chemically not as stable; affinity for CaM relative to OphA (calmodulin (CaM); after 24-h incubation, higher affinity than OphA): 15 fold"
10.6,10.5,32.4,31.6,3.1,39,2.5,Cc1c(N2CCCCC2)c2c(=O)c(C(F)(F)F)cc3ccc(C(C)C)cc1c32 [Compound 8],1.5,"IC50 (K-RasG12V/CaM; 24-h exposure, A/D plasmid ratio 9/1, read-out: IC50 of Rluc8-K-RasG12V/GFP2-CaM BRET signal): 70 ± 11 µM; binding to mutCaM over time [1]: same binding affinity for wt CaM and mutCaM over time"
–,–,–,–,–,–,–,NCCCCCCNS(=O)(=O)c1cccc2c(Cl)cccc12 [Compound W-7],–,concentration inhibiting CaM targets [2]: > 100 µM
–,–,–,–,–,–,–,COC(=O)[C@H](CCSC)NC(=O)c1ccc(NC[C@@H](N)CS)cc1-c1ccccc1 [FTI-277],–,H-Ras selective decrease of nanoclustering-BRET (H-RasG12V): 1.4 fold
–,–,–,–,–,–,–,CC(C)n1nccc1-c1ncccc1COc1cccc(O)c1C=O [GBT440],–,k2/Ki (α-hemoglobin): 15 × 10^3 M^–1 h^–1
–,–,–,–,–,–,–,Clc1ccc(C(c2ccc(Cl)cc2)n2cc[n+](CC(OCc3ccc(Cl)cc3Cl)c3ccc(Cl)cc3Cl)c2)cc1 (stereo not drawn) [calmidazolium],–,"K-Ras selective reduction of nanoclustering-BRET (K-Ras vs H-Ras) (K-RasG12V): 1.5 fold; effect on Rluc8-K-RasG12V/GFP2-CaM BRET signal, single concentration (K-RasG12V/CaM; calmidazolium 20 μM, prostratin 20 μM, OphA 5 μM): significantly reduced the BRET signal; multipolar phenotype (multiple mCherry-CaM-positive centrosomes) (HeLa cells): increased fraction of multipolar cells; Kd (CaM): 0.0135 µM"
